Experimental data reported in patent US8956824B2, “Methods for identifying allosteric modulators of ship polypeptides” (British Columbia Cancer Agency Branch, priority 2006, dated 2015).
“Also recorded” adds a separate entry of the source.

Tests used:
SHIP1 C2 domain = biological target: T1, SHIP1 C2 domain (Mus musculus, UniProt Q9ES52); assay: Scintillation proximity assay, C2 domain; assay type: binding; conditions: C2 domain 10 nM, 5 μCi
T1 construct: Recombinant SHIP1 C2 domain (amino acid residues 725 to 863); made in house; host or cells: E. coli, pET28C
T1 sequence (Q9ES52 725-863): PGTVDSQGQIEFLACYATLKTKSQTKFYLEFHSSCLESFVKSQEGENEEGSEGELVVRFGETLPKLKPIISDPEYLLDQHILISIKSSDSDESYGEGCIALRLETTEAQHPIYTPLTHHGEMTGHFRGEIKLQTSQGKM
Procedure: Scintillation Proximity Assays AQX-MN100 was radiolabeled with tritium by GE Healthcare (Piscataway, N.J.) to a specific activity of 42 Ci/mmole. Copper chelate (His-Tag) YSi YSi SPA Scintillation Beads (GE Healthcare ,Piscataway, NJ) were diluted in 0.25% BSA/TBS to 1.5 mg/mL and recombinant, His6-tagged protein added at the indicated concentrations: wild-type (1 pM), ΔC2 SHIP enzyme (1 pM) or C2 domain (10 nM). Protein was allowed to bind 1 h at 23° C., and 250 μg of beads were aliquoted per well of a 96-well plate. 5 μCi of [3H]-AQX-MN100 was added per well, the plate gently agitated for 30 min and the amount of bead associated radioactivity quantified by counting in a Wallac BETAPLATE™ plate scintillation counter. Results are representative of 3 independent experiments.

PH domain deleted SHIP1 = biological target: T2, PH domain deleted SHIP1 (Mus musculus, UniProt Q9ES52, DEL292-400/E403A/P402A/Q401A); assay: Scintillation proximity assay, PH domain deleted SHIP1; assay type: binding
T2 construct: Full length, wild-type SHIP1 enzyme (wt) or SHIP1 enzyme in which the PH or C2 domains were deleted; His6 (N); made in house; 293T cells are stated only for the wild-type enzyme
T2 sequence (Q9ES52 with tags, fused parts or gaps DEL292-400/Q401A/P402A/E403A): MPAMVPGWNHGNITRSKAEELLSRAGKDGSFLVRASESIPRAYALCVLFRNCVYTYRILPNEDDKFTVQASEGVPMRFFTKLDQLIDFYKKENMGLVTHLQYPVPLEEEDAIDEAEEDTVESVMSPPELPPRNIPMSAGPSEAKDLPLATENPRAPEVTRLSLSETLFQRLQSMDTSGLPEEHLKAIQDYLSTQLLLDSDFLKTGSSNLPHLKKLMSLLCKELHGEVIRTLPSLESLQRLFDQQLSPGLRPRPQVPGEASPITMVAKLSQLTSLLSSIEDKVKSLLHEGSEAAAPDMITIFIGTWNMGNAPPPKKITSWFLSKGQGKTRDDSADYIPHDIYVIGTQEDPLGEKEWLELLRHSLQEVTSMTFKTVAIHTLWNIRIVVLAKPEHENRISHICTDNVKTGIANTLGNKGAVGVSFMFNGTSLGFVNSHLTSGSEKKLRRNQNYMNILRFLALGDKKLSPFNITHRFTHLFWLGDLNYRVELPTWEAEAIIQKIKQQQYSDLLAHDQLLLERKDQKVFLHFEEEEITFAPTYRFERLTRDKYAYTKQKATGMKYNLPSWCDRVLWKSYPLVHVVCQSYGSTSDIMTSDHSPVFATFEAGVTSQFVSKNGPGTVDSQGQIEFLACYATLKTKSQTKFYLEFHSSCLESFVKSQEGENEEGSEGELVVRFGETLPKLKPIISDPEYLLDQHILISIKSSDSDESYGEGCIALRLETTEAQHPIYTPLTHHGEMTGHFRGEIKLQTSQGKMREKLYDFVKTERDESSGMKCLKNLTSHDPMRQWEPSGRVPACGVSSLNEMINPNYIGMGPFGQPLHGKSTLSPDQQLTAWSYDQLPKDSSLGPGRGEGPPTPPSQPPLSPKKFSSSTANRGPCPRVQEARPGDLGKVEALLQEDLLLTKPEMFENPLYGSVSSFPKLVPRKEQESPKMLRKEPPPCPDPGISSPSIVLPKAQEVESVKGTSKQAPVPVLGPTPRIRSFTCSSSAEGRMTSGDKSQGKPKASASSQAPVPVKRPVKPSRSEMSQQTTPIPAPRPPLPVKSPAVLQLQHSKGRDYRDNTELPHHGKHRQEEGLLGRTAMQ

[1] = test system: 100 protein kinase and phosphatase targets; assay: In vitro kinase/phosphatase screen; assay type: biochemical; conditions: 2 μM final concentration; changes <25% not considered significant
Procedure: Protein kinase assays were performed at 30° C. for 15 min in a final volume of 25 μL. The assay was initiated by the addition of [32P]-ATP and the reaction mixture incubated at 30° C. for 15 minutes. After the 15 minute incubation period, the assay was terminated by spotting 20 μl of the reaction mixture onto phosphocellulose P81 plate. The phosphocellulose P81 plate was washed 3 times for approximately 15 minutes each in a 1% phosphoric acid solution. The radioactivity on the P81 plate was counted in the presence of scintillation fluid in a scintillation counter. Protein phosphatase activities were determined using pNPP as substrate. Assays were performed at 37° C. for 15 min in a […]. The assay was started by incubating the reaction mixture at 37° C. for 15 minutes. After the 15 minutes incubation period, the assay was terminated by the addition of 25 μl of 2N NaOH stopping solution. The absorbance of the reaction solution was measured in a spectrophotometer at 410 nm. The activity of the enzymes in the presence of AQX-MN100 was compared to that in the vehicle control and expressed as a % change in activity relative to that observed in the vehicle control. Changes in activity of <25% were not considered significant. _

binding of [3H]-AQX-MN100 to SHIP1 with PH domain deleted (PH domain deleted SHIP1): attenuates the ability of SHIP1 to bind
SMILES: Cc1cc(O)cc2c1[C@]1(C)CC[C@H]3C(C)(C)CCC[C@]3(C)[C@H]1C2 [AQX-MN100]
binding of [3H]-AQX-MN100 to recombinant C2 domain (SHIP1 C2 domain): could directly bind; also recorded: reproducibly observed to bound; also recorded: binds | activity on a panel of 100 kinases and phosphatases [1]: very little activity; also recorded: selectively enhances SHIP enzyme activity
